# From ChEMBL document CHEMBL5223117, “Synthesis and biological evaluation of novel N, N'-diarylurea derivatives as potent antibacterial agents against MRSA” (Bioorg Med Chem Lett, 2022)
# What was measured:
# Staphylococcus aureus [1] = experiment: Selectivity ratio of MBC for bactericidal activity against methicillin resistant Staphylococcus aureus ATCC 43300 to MIC for antibacterial activity against methicillin resistant Staphylococcus aureus ATCC 43300; format: functional
# Staphylococcus aureus [2] = experiment: Antibacterial activity against methicillin sensitive Staphylococcus aureus 15; format: functional
# Staphylococcus aureus [3] = experiment: Selectivity ratio of MBC for bactericidal activity against methicillin resistant Staphylococcus aureus 16-30 to MIC for antibacterial activity against methicillin resistant Staphylococcus aureus 16-30; format: functional
# Enterococcus faecium [4] = experiment: Selectivity ratio of MBC for bactericidal activity against Vanomycin-resistant Enterococcus faecium ATCC 700221 to MIC for antibacterial activity against Vanomycin-resistant Enterococcus faecium ATCC 700221; format: functional
# Staphylococcus aureus [5] = experiment: Bactericidal activity against vancomycin intermediate and methicillin resistant Staphylococcus aureus ATCC 700698; format: functional
# [6] = tested on: Staphylococcus epidermidis; experiment: Antibacterial activity against methicillin sensitive Staphylococcus epidermidis 17-13; format: functional
# Staphylococcus aureus [7] = experiment: Antibacterial activity against methicillin resistant Staphylococcus aureus 18-2; format: functional
# [8] = tested on: Staphylococcus epidermidis; experiment: Antibacterial activity against methicillin resistant Staphylococcus epidermidis 19-2; format: functional
# Enterococcus faecalis [9] = experiment: Antibacterial activity against Vanomycin-resistant Enterococcus faecalis ATCC 51299; format: functional
# Enterococcus faecium [10] = experiment: Antibacterial activity against Vanomycin-resistant Enterococcus faecium 15-6; format: functional
# [11] = tested on: Staphylococcus epidermidis; experiment: Antibacterial activity against methicillin resistant Staphylococcus epidermidis 19-1; format: functional
# [12] = tested on: Staphylococcus epidermidis; experiment: Antibacterial activity against methicillin sensitive Staphylococcus epidermidis ATCC 12228; format: functional
# [13] = Cytotoxicity against human HeLa cells by SRB assay; format: toxicity, cell-based
# Staphylococcus aureus [14] = experiment: Antibacterial activity against methicillin sensitive Staphylococcus aureus ATCC 29213; format: functional
# Staphylococcus aureus [15] = experiment: Antibacterial activity against methicillin resistant Staphylococcus aureus 16-30; format: functional
# Staphylococcus aureus [16] = experiment: Antibacterial activity against vancomycin intermediate and methicillin resistant Staphylococcus aureus ATCC 700699; format: functional
# Enterococcus faecium [17] = experiment: Antibacterial activity against Vanomycin-resistant Enterococcus faecium ATCC 700221; format: functional
# Staphylococcus aureus [18] = experiment: Bactericidal activity against methicillin resistant Staphylococcus aureus ATCC 33591; format: functional
# Staphylococcus aureus [19] = experiment: Bactericidal activity against methicillin resistant Staphylococcus aureus ATCC 43300; format: functional
# [20] = Cytotoxicity against human HepG2 cells by SRB assay; format: toxicity, cell-based
# Staphylococcus aureus [21] = experiment: Antibacterial activity against methicillin resistant Staphylococcus aureus ATCC 43300; format: functional
# Staphylococcus aureus [22] = experiment: Antibacterial activity against methicillin resistant Staphylococcus aureus ATCC 33591; format: functional
# Enterococcus faecium [23] = experiment: Antibacterial activity against Vanomycin-resistant Enterococcus faecium ATCC 51559; format: functional
# Staphylococcus aureus [24] = experiment: Antibacterial activity against methicillin resistant Staphylococcus aureus 20-11; format: functional
# Enterococcus faecium [25] = experiment: Bactericidal activity against Vanomycin-resistant Enterococcus faecium ATCC 700221; format: functional
# Enterococcus faecalis [26] = experiment: Bactericidal activity against Vanomycin-resistant Enterococcus faecalis ATCC 51299; format: functional
# Enterococcus faecalis [27] = experiment: Antibacterial activity against Vanomycin-resistant Enterococcus faecalis ATCC 51575; format: functional
# Staphylococcus aureus [28] = experiment: Antibacterial activity against methicillin sensitive Staphylococcus aureus ATCC 33591; format: functional
# Staphylococcus aureus [29] = experiment: Antibacterial activity against vancomycin intermediate and methicillin resistant Staphylococcus aureus ATCC 700698; format: functional
# Staphylococcus aureus [30] = experiment: Selectivity ratio of MBC for bactericidal activity against methicillin resistant Staphylococcus aureus ATCC 33591 to MIC for antibacterial activity against methicillin resistant Staphylococcus aureus ATCC 33591; format: functional
# Staphylococcus aureus [31] = experiment: Antibacterial activity against methicillin sensitive Staphylococcus aureus 20-12; format: functional
# Staphylococcus aureus [32] = experiment: Selectivity ratio of MBC for bactericidal activity against vancomycin intermediate and methicillin resistant Staphylococcus aureus ATCC 700698 to MIC for antibacterial activity against vancomycin intermediate and methicillin resistant Staphylococcus aureus ATCC 700698; format: functional
# Staphylococcus aureus [33] = experiment: Bactericidal activity against methicillin resistant Staphylococcus aureus 16-30; format: functional
# Enterococcus faecalis [34] = experiment: Selectivity ratio of MBC for bactericidal activity against Vanomycin-resistant Enterococcus faecalis ATCC 51299 to MIC for antibacterial activity against Vanomycin-resistant Enterococcus faecalis ATCC 51299; format: functional
Structure (SMILES),Ratio (Staphylococcus aureus [1]),MIC (Staphylococcus aureus [2]) [µM],Ratio (Staphylococcus aureus [3]),Ratio (Enterococcus faecium [4]),MBC (Staphylococcus aureus [5]) [µM],MIC [6] [µM],MIC (Staphylococcus aureus [7]) [µM],MIC [8] [µM],MIC (Enterococcus faecalis [9]) [µM],MIC (Enterococcus faecium [10]) [µM],MIC [11] [µM],MIC [12] [µM],IC50 [13] [µM],MIC (Staphylococcus aureus [14]) [µM],MIC (Staphylococcus aureus [15]) [µM],MIC (Staphylococcus aureus [16]) [µM],MIC (Enterococcus faecium [17]) [µM],MBC (Staphylococcus aureus [18]) [µM],MBC (Staphylococcus aureus [19]) [µM],IC50 [20] [µM],also measured
O=C(Nc1ccc(Cl)c(C(F)(F)F)c1)Nc1cc(F)c(F)c(F)c1F,33,0.31,16,>32,10.3,0.31,0.31,0.65,2.59,1.29,0.31,0.65,8.9,0.31,0.65,0.31,1.29,10.3,10.3,7.09,MIC (Staphylococcus aureus [21]): 0.31 µM; MIC (Staphylococcus aureus [22]): 0.31 µM; MIC (Enterococcus faecium [23]): 1.29 µM; MIC (Staphylococcus aureus [24]): 0.31 µM; MBC (Enterococcus faecium [25]): > 82.8 µM; MBC (Enterococcus faecalis [26]): > 82.8 µM; MIC (Enterococcus faecalis [27]): 5.17 µM; MIC (Staphylococcus aureus [28]): 0.31 µM; MIC (Staphylococcus aureus [29]): 0.31 µM; Ratio (Staphylococcus aureus [30]): 33; MIC (Staphylococcus aureus [31]): 0.65 µM; Ratio (Staphylococcus aureus [32]): 33; MBC (Staphylococcus aureus [33]): 10.3 µM; Ratio (Enterococcus faecalis [34]): >32
O=C(Nc1ccc(Cl)cc1)Nc1ccc(Cl)c(C(F)(F)F)c1 [CLOFLUCARBAN],>64,0.72,>32,>64,> 22.9,0.72,0.34,0.72,1.43,2.86,0.72,0.72,4.5,0.34,0.72,0.34,1.43,> 45.8,> 45.8,7.7,MIC (Staphylococcus aureus [21]): 0.72 µM; MIC (Staphylococcus aureus [22]): 0.34 µM; MIC (Enterococcus faecium [23]): 1.43 µM; MIC (Staphylococcus aureus [24]): 0.72 µM; MBC (Enterococcus faecium [25]): > 91.7 µM; MBC (Enterococcus faecalis [26]): > 183 µM; MIC (Enterococcus faecalis [27]): 2.86 µM; MIC (Staphylococcus aureus [28]): 0.34 µM; MIC (Staphylococcus aureus [29]): 0.72 µM; Ratio (Staphylococcus aureus [30]): >135; MIC (Staphylococcus aureus [31]): 1.43 µM; Ratio (Staphylococcus aureus [32]): >32; MBC (Staphylococcus aureus [33]): > 22.9 µM; Ratio (Enterococcus faecalis [34]): >128
